These results are taken from patent US4279994A (priority 1979, dated 1981).

Holding throughout (format): biochemical
The target of one assay is T1, pseudocholinesterase (Homo sapiens, UniProt P06276).
T1 construct: hydrolysis of S-acyl substrate (BALB) with chromogenic sulfhydryl reagent
As to the kind of experiment: Eserine salicylate added to fresh human serum specimens, absorbance change between 10 and 30 minutes incubation (Example 4). The settings on record: for Absorbance change: 10 to 30 minutes incubation.

The target in the next assay is acetyl cholinesterase (Homo sapiens, UniProt P22303).
acetyl cholinesterase, sequence (P22303 32-614): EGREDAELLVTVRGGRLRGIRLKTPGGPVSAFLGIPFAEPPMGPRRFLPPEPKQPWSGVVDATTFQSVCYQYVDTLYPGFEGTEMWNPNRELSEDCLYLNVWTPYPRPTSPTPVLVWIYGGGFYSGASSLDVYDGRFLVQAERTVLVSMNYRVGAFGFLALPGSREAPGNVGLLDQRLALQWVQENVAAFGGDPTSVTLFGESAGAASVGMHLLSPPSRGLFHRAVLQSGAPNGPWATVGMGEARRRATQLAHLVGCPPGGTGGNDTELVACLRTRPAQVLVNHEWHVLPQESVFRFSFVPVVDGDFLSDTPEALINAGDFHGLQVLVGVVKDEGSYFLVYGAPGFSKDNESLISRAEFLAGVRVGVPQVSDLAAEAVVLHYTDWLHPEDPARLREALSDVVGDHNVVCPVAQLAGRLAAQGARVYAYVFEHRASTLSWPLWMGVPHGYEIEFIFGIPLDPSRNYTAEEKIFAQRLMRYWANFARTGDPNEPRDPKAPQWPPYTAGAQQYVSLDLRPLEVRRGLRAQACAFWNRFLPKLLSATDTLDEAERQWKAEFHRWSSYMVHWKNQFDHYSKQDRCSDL
Another assay addresses butyryl cholinesterase (Homo sapiens, UniProt P06276).
For assay [1], the target named is T2, human serum containing naturally occurring pseudocholinesterases (Homo sapiens, UniProt P06276).
T2 construct: human serum containing naturally occurring pseudocholinesterases; from tissue; host or cells: human serum (Serum A, Serum B)
T2 sequence (P06276 29-602): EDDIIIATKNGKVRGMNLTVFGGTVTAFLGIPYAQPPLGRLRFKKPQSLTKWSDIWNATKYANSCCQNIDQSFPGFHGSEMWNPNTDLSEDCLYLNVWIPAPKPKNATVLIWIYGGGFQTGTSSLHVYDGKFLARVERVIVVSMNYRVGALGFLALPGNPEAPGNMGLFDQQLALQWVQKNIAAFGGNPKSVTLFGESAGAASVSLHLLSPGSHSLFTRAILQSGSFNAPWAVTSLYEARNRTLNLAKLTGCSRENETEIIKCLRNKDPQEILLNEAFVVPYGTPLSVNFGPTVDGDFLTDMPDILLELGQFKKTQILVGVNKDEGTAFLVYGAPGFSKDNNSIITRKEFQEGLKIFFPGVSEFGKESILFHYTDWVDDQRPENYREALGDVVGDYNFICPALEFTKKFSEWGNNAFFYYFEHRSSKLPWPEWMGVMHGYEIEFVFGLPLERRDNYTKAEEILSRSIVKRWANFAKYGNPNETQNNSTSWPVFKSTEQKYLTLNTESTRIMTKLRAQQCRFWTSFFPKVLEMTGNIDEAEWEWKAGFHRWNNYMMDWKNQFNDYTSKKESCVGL

For a further assay, the system named is lipase. As to the kind of experiment: Effect on lipase under the test conditions.
Assay [2] in a line: Reagent without lipase and without eserine salt, used to assay cholinesterase solutions (Example 4). The settings on record: 1.17 units of acetyl cholinesterase or 0.36 units of butyryl cholinesterase; no lipase and no eserine salt. As for the experimental part: The four-reagent kit of Example 1 is utilized as follows, using duplicate specimen vials labelled "Patient-Blank", "Patient", "Blank 10 Minutes" and "Blank 30 Minutes", and the following procedure.
The activity of serum lipase is proportional to the absorbance at 412 nanometers, and is calculated as follows:
Lipase activity per 20 minutes= Absorbance [patient vial-Blank vial] (30 minutes) -Absorbance [patient vial-Blank vial] (10 minutes)
A reagent composition is formulated to contain the following: […]
Final pH about 8.8. Using a procedure similar to that of Example 2, the reagent was used to assay solutions containing 1.17 units of acetyl cholinesterase (a true cholinesterase) or 0.36 units of butyryl cholinesterase (a pseudocholinesterase). Acetyl cholinesterase produced an absorbance change of 0.011 absorbance units and butyryl cholinesterase produced a change of 0.421 absorbance units.

Structures can show the parent of a compound that is named as a salt. Where two headings read alike, the source gives them in different places.

butyryl cholinesterase, sequence (P06276 29-602): as above
T1 sequence (P06276 29-602): as above

In the case of `CNC(=O)Oc1ccc2c(c1)[C@]1(C)CCN(C)[C@@H]1N2C` [Eserine Salicylate, Eserine salicylate], the “specificity for serum pseudocholinesterase” value at pseudocholinesterase was “highly specific for serum pseudocholinesterase”. For the same molecule, on pseudocholinesterase (concentrations increasing from 0.02 to 0.05 millimolar), the “improvement with increasing inhibitor concentration” value was “little or no improvement”. The “inhibition of pseudocholinesterase (in words)” value against pseudocholinesterase (fresh human serum, Example 4) is recorded as “inhibition of pseudocholinesterase”. The Absorbance change was 0.501 at pseudocholinesterase (fresh human serum, 5 microliters (0.005 millimolar) of 1 millimolar eserine salicylate added); 0.495 on pseudocholinesterase (fresh human serum, 10 microliters of 1 millimolar eserine salicylate added); 0.475 on pseudocholinesterase (fresh human serum, 20 microliters of 1 millimolar eserine salicylate added); 0.490 at pseudocholinesterase (fresh human serum, 30 microliters of 1 millimolar eserine salicylate added); 0.496 on pseudocholinesterase (fresh human serum, 40 microliters of 1 millimolar eserine salicylate added); 0.492 on pseudocholinesterase (fresh human serum, 50 microliters of 1 millimolar eserine salicylate added). At acetyl cholinesterase, the “Activity, Acetyl Cholinesterase” value is 0.027 ΔAbsorbance per 20 minutes incubation. For the same molecule, the “Activity, Butyryl Cholinesterase” value on butyryl cholinesterase is 0.182 ΔAbsorbance per 20 minutes incubation. Also, the “inhibition of BALB hydrolysis by pseudocholinesterase (in words)” value against butyryl cholinesterase was “significant inhibition”. In assay [1], the “Activity, Serum A” value was 0.078 ΔAbsorbance per 20 minutes incubation. The “Activity, Serum B” value in assay [1] is 0.092 ΔAbsorbance per 20 minutes incubation. The inhibition of lipase entry in the assay with lipase is on record as “does not inhibit lipase”.
For `CN(C)C(=O)Oc1cccc([N+](C)(C)C)c1` [Neostigmine Methyl Sulfate, neostigmine methylsulfate], the “Activity, Acetyl Cholinesterase” value on acetyl cholinesterase is 0.025 ΔAbsorbance per 20 minutes incubation. On butyryl cholinesterase, the “Activity, Butyryl Cholinesterase” value is recorded as 0.187 ΔAbsorbance per 20 minutes incubation and the “inhibition of BALB hydrolysis by pseudocholinesterase (in words)” value is “significant inhibition”. In assay [1], the “Activity, Serum A” value is on record as 0.098 ΔAbsorbance per 20 minutes incubation and the “Activity, Serum B” value is 0.081 ΔAbsorbance per 20 minutes incubation.
Turning to `O=S(=O)(F)Cc1ccccc1` [PMSF, phenyl methyl sulfonyl fluoride], on acetyl cholinesterase (50 microliters of acetyl cholinesterase, 10.4 units per ml, Neostigmine Methyl Sulfate 0.037 mM, PMSF 0.37 mM), the “Activity, Acetyl Cholinesterase” value was 0.021 ΔAbsorbance per 20 minutes incubation. The “Activity, Butyryl Cholinesterase” value at butyryl cholinesterase (50 microliters of butyryl cholinesterase, 7.2 units per ml, Eserine Salicylate 0.037 μm, Neostigmine Methyl Sulfate 0.037 mM, PMSF 0.37 mM) is recorded as 0.338 ΔAbsorbance per 20 minutes incubation. Moreover, in assay [1] (50 microliters of human Serum A, Eserine Salicylate 0.037 μm, Neostigmine Methyl Sulfate 0.037 mM, PMSF 0.37 mM), the “Activity, Serum A” value was 0.487 ΔAbsorbance per 20 minutes incubation. For the same molecule, the “Activity, Serum B” value in assay [1] (50 microliters of human Serum B, Eserine Salicylate 0.037 μm, Neostigmine Methyl Sulfate 0.037 mM, PMSF 0.37 mM) was 0.383 ΔAbsorbance per 20 minutes incubation. For the same molecule, in assay [1] (serum samples, without pseudocholinesterase inhibitor), the “effect in inhibiting the interfering hydrolysis of the S-acyl compound (in words)” value is recorded as “little or no effect”.
In the case of Acetyl cholinesterase, in assay [2], the Absorbance change is on record as 0.011 absorbance units.
